Experimental data reported in US11001570B2, “6-amino-quinolinone compounds and derivatives as BCL6 inhibitors” (Boehringer Ingelheim International GmbH, priority 2016, dated 2021).

Molecular target: T1, BCL6::BCOR (Homo sapiens, UniProt P41182, C67R/C84N/C8Q)
T1 construct: BCL6 (amino acids 5 to 129, with the following changes to the natural protein); made in house; host or cells: E. coli
Assay: BCL6::BCOR ULight TR-FRET assay
Format: binding
Excerpt: Biological Methods BCL6::BCOR ULight TR-FRET Assay:
Biotinylated BCL6 protein corresponding to BCL6 (amino acids 5 to 129, with the following changes to the natural protein: C8Q, C67R, C84N) is expressed in E. coli with a carboxy-terminal Avi tag (amino acid sequence […]). The BCOR ULight peptide uses a direct carboxy-terminal ULight tag (PerkinElmer). The sequence of the peptide is CRSEIISTAPSSWVVPGP, with the amino terminus acetylated and the ULight tag attached to the cysteine. Compounds are dispensed onto assay plates (Proxiplate 384 PLUS, white, PerkinElmer) using an Access Labcyte Workstation with the Labcyte Echo 55×from a DMSO solution. For the chosen highest assay concentration of 100 μM, 150 nl of compound solution are transferred from a 10 mM DMSO compound stock solution. A series of 11 concentrations is transferred for each compound at which each concentration is fivefold lower than the previous one. DMSO is added such that every well has a total of 150 nl compound solution. 5 μL of 1 nM BCL6 protein in assay buffer (50 mM HEPES pH 7.3; 125 mM NaCl; 1 mM GSH; 0.01% Triton-X 100; 0.03% BSA) are added to the 150 nl of compounds. After 30 minutes incubation time at room temperature, 10 μL of a mix containing BCOR ULight peptide (100 nM final assay concentration) and Streptavidin-Europium (0.75 nM final assay concentration) are added. Plates are kept at room temperature. After 240 minutes incubation time the TR-FRET signal is measured in a PerkinElmer Envision HTS Multilabel Reader using the TR-FRET LANCE Ultra specs of PerkinElmer. Each plate contains negative controls (diluted DMSO instead of test compound; BCOR peptide and Streptavidin Europium mix with BCL6 protein) and positive controls (diluted DMSO instead of test compound; BCOR peptide and Streptavidin-Europium mix without BCL6 protein). Negative and positive control values are used for normalization.

Row | SMILES | IC50 [nM]
1 | CNC(=O)COc1cc2cc(Nc3nc(N4CCCC(F)CC4)ncc3F)ccc2n(C)c1=O (stereo not shown) [Compound I-21] | 12
2 | CNC(=O)COc1cc2cc(Nc3nc(N4C[C@H](CO)N[C@@H](C)C4)ncc3Cl)ccc2n(C)c1=O (single isomer, unassigned) [Compound I-10] | 18
3 | C[C@@H]1C[C@H](C)CN(c2ncc(Cl)c(Nc3ccc4c(c3)cc(OCC(=O)OCCCN(C)C)c(=O)n4C)n2)C1 [Compound I-141] | 9
4 | CNC(=O)COc1cc2cc(Nc3nc(N4CCC(CN5CCOCC5)CC4)ncc3Cl)ccc2n(C)c1=O [Compound I-44] | 9
5 | CNC(=O)COc1cc2cc(Nc3nc(N4CCC(C(=O)N(C)C)CC4)ncc3F)ccc2n(C)c1=O [Compound I-28] | 12
6 | Cn1c(=O)c(OCC(=O)O)cc2cc(Nc3nc(N4CCc5ccccc5CC4)ncc3Cl)ccc21 [Compound I-106] | 210
7 | CNC(=O)COc1cc2cc(Nc3nc(N4CCC(N5CCCC5)CC4)ncc3Cl)ccc2n(C)c1=O [Compound I-41] | 8
8 | CNC(=O)[C@@H](C)Oc1cc2cc(Nc3nc(N4CCC(C(=O)N(C)C)CC4)ncc3Cl)ccc2n(C)c1=O [Compound I-162] | 98
9 | CNC(=O)COc1cc2cc(Nc3nc(N4C[C@H](C)C[C@H](C)C4)ncc3Cl)cnc2n(C)c1=O [Compound I-155] | 9
10 | CNC(=O)COc1cc2cc(Nc3nc(N4CCC(C)CC4)ncc3Cl)ccc2n(C)c1=O [Compound I-35] | 8
11 | CNC(=O)COc1cc2cc(Nc3nc(N4CCCC(F)(F)C4)ncc3Cl)ccc2n(C)c1=O [Compound I-29] | 10
12 | CNC(=O)COc1cc2cc(Nc3nc(N4CCC(F)CC4)ncc3F)ccc2n(C)c1=O [Compound I-22] | 10
13 | CNC(=O)COc1cc2cc(Nc3nc(N4C[C@@H](CO)N[C@@H](C)C4)ncc3Cl)ccc2n(C)c1=O (single isomer, unassigned) [Compound I-11] | 13
14 | C[C@@H]1C[C@H](C)CN(c2ncc(Cl)c(Nc3ccc4c(c3)cc(OCC(=O)NCCN(C)C)c(=O)n4C)n2)C1 [Compound I-138] | 529
15 | C[C@@H]1C[C@H](C)CN(c2ncc(Cl)c(Nc3ccc4c(c3)cc(SCC(=O)O)c(=O)n4C)n2)C1 [Compound I-150, 2-{[6-({5-chloro-2-[cis-3,5-dimethylpiperidin-1-yl]pyrimidin-4-yl}amino)-1-methyl-2-oxo-1,2-dihydroquinolin-3-yl]sulfanyl}acetic acid] | 85
16 | C[C@@H]1C[C@H](C)CN(c2ncc(Cl)c(Nc3ccc4c(c3)cc(OCP(C)(C)=O)c(=O)n4C)n2)C1 [Compound I-172, 6-({5-chloro-2-[cis-3,5-dimethylpiperidin-1-yl]pyrimidin-4-yl}amino)-3-[(dimethylphosphoryl)-methoxy]-1-methyl-1,2-dihydroquinolin-2-one] | 187
17 | CNC(=O)COc1cc2cc(Nc3nc(N4CCC(C(=O)N(C)C)CC4)ncc3Cl)c(OC)cc2n(C)c1=O [Compound I-163] | 60
18 | CNC(=O)COc1cc2cc(Nc3nc(N4CCCN(C)CC4)ncc3Cl)ccc2n(C)c1=O [Compound I-46] | 13
19 | CCNC(=O)C1CCCN(c2ncc(Cl)c(Nc3ccc4c(c3)cc(OCC(=O)O)c(=O)n4C)n2)C1 (stereo not shown) [Compound I-107] | 10
20 | CC1CCCN(c2ncc(Cl)c(Nc3ccc4c(c3)cc(OCC(=O)O)c(=O)n4C)n2)C1 (stereo not shown) [Compound I-119] | 13
21 | COCCN(C)C(=O)COc1cc2cc(Nc3nc(N4C[C@H](C)C[C@H](C)C4)ncc3Cl)ccc2n(C)c1=O [Compound I-134] | 77
22 | CNC(=O)COc1cc2cc(Nc3nc(N4CCC(N5CCC(C)CC5)CC4)ncc3Cl)ccc2n(C)c1=O [Compound I-40] | 9
23 | C[C@@H]1C[C@H](C)CN(c2ncc(Cl)c(Nc3ccc4c(c3)cc(OC[S+](C)[O-])c(=O)n4C)n2)C1 (single isomer, unassigned) [Compound I-174] | 16

These reach a lower IC50. Values come first.

Row | IC50 [nM] | SMILES
24 | 4 | CCn1c(=O)c(OCC(=O)NC)cc2cc(Nc3nc(N4CCC(C(=O)O)CC4)ncc3Cl)ccc21 [Compound I-73]
25 | 7 | CCCn1c(=O)c(OCC(=O)NC)cc2cc(Nc3nc(N4CCC(F)(F)CC4)ncc3Cl)ccc21 [Compound I-81]
26 | 5 | Cn1c(=O)c(OCC(=O)O)cc2cc(Nc3nc(N4CCC(F)CC4)ncc3Cl)ccc21 [Compound I-132, 2-[(6-{[5-chloro-2-(4-fluoropiperidin-1-yl)pyrimidin-4-yl]amino}-1-methyl-2-oxo-1,2-dihydro-quinolin-3-yl)oxy]acetic acid]
27 | 5 | CC(CN(C)C)OC(=O)COc1cc2cc(Nc3nc(N4C[C@H](C)C[C@H](C)C4)ncc3Cl)ccc2n(C)c1=O (stereo partly shown) [Compound I-140]
28 | 5 | CNC(=O)COc1cc2cc(Nc3nc(N4CCC(C#N)CC4)ncc3Cl)ccc2n(C)c1=O [Compound I-30]
29 | 6 | CNC(=O)COc1cc2cc(Nc3nc(N4CCC(C(=O)N(C)C)CC4)ncc3Cl)ccc2n(CCCO)c1=O [Compound I-151, 1-(5-chloro-4-{[1-(3-hydroxypropyl)-3-[(methyl-carbamoyl)methoxy]-2-oxo-1,2-dihydroquinolin-6-yl]amino}pyrimidin-2-yl)-N,N-dimethyl-piperidine-4-carboxamide]
30 | 7 | CNC(=O)COc1cc2cc(Nc3nc(N4CCC(N5CCCCCC5)CC4)ncc3Cl)ccc2n(C)c1=O [Compound I-37]
31 | 7 | CNC(=O)COc1cc2cc(Nc3nc(N4CCC(C(=O)N5CCN(C)CC5)CC4)ncc3Cl)ccc2n(C)c1=O [Compound I-90]
32 | 4 | CNC(=O)COc1cc2cc(Nc3nc(N4CCC(C(C)(C)C(=O)O)CC4)ncc3Cl)ccc2n(C)c1=O [Compound I-56]
33 | 5 | CCn1c(=O)c(OCC(=O)NC)cc2cc(Nc3nc(N4CCC(F)CC4)ncc3Cl)ccc21 [Compound I-75]
34 | 6 | CNC(=O)COc1cc2cc(Nc3nc(N4CCC(F)CC4)ncc3Cl)ccc2n(CC2CC2)c1=O [Compound I-88]
35 | 6 | CNC(=O)COc1cc2cc(Nc3nc(N4CCCCC4)ncc3Cl)ccc2n(C)c1=O [Compound I-19]
36 | 6 | CCC1CN(c2ncc(Cl)c(Nc3ccc4c(c3)cc(OCC(=O)NC)c(=O)n4C)n2)CCN1CC(F)F (stereo not shown) [Compound I-122]
37 | 4 | CNC(=O)COc1cc2cc(Nc3nc(N4CCC(C(=O)O)CC4)ncc3Cl)ccc2n(C)c1=O [Compound I-62]
38 | 5 | CCn1c(=O)c(OCC(=O)NC)cc2cc(Nc3nc(N4CCC(F)(F)CC4)ncc3Cl)ccc21 [Compound I-76]
39 | 7 | CNC(=O)COc1cc2cc(Nc3nc(N4CC(C)NC(CF)C4)ncc3Cl)ccc2n(C)c1=O (stereo not shown) [Compound I-12, 2-{[6-({5-chloro-2-[3-(fluoromethyl)-5-methylpiperazin-1 yl]pyrimidin-4-yl}amino)-1-methyl-2-oxo-1,2-dihydroquinolin-3-yl]oxy}-N-methylacetamide]
40 | 5 | C[C@@H]1C[C@H](C)CN(c2ncc(Cl)c(Nc3ccc4c(c3)cc(OCC(=O)OCCN3CCOCC3)c(=O)n4C)n2)C1 [Compound I-142]
41 | 5 | CNC(=O)COc1cc2cc(Nc3nc(N4CCN(CCC(=O)O)C(=O)C4)ncc3Cl)ccc2n(C)c1=O [Compound I-92]
42 | 7 | Cn1c(=O)c(OCC(=O)O)cc2cc(Nc3nc(N4CCC(C(=O)O)CC4)ncc3Cl)ccc21 [Compound I-102]
43 | 6 | CNC(=O)COc1cc2cc(Nc3nc(N4CCN(CCN(C)C)CC4)ncc3Cl)ccc2n(C)c1=O [Compound I-20]
